For series [1], the system named is AR+LNCaP androgen-sensitive human prostate cancer cell line. Briefly: MTT in vitro cytotoxicity assay, 24 h incubation. It counts as cell-based. The following applies: for IC50: Homo sapiens, MTT; for Selective Index Wi38/Lncap: ratio of IC50 values. The procedure:
(§1) The antitumor properties of pyrazolylmethylene-2-thioxoimidazolidin-4-one derivatives (3a–p) against androgen-sensitive (AR^+LNCaP; ATCC CRL-1740, Accession: CVCL_0395) and androgen-insensitive (AR^-PC-3; ATCC CRL-1435, Accession: CVCL_D5ZS) human prostate cancer cell lines in addition to normal human lung fibroblast cell line (Wi38, Accession: CVCL_2759) were evaluated by MTT assay. AR^+LNCaP, AR^-PC-3, and Wi38 cell lines were purchased frozen in liquid nitrogen from Egyptian Company for Production of Vaccines, Sera and Drugs, Cairo, Egypt (VACSERA). Tumor cell lines were stored as monolayer cultures in DMEM supplemented with 10% FBS and 1% penicillin–streptomycin. MTT assay was carried out as described previously in the literature. In brief, AR^+LNCaP, AR^-PC-3, and Wi38 cells were cultured into 96-well plates containing 100 µL of culture medium per each well. […] A control containing only culture medium was also applied. The assay was performed in triplicate. The cells were incubated overnight to grow at 37 °C in 5% CO2. After removing the growth medium, 100 µL of MTT (0.4 mg/mL of PBS) were added. After 24 h of incubation, the supernatant was removed and 100 µL of DMSO (Sigma Aldrich, Germany) were then added to each sample. Absorbance at 550 nm was measured. The formula (Reading of extract/Reading of negative control) × 100 was applied to calculate the viability percentage. The IC50 value of test compounds (3a–p) was also determined using CPE measurements of normal Wi38 cells (normal human lung fibroblast cells). The MTT assay was repeated with the test compounds (3i, 3k, 3o, 3j, 3p, and 3m) using the three cell types which were stimulated by 1 nM DHT after 48 h of incubation. IC50 values were estimated using Graph Pad Prism computer software (International Scientific Community, San Diego, CA, USA) from linear regression analysis of the concentration–response curves plotted for each tested compound [36].
(§2) In vitro cytotoxicity assay was performed to elucidate the antitumor properties of the synthesized derivatives of pyrazolylmethylene-2-thioxoimidazolidin-4-one. […] The cytotoxicity assay was performed using MTT assay as described in the Materials and Methods Section 2.4.1. The test compounds were dissolved in DMSO as stock solutions (<0.5% (v/v)) and stored in the dark at −20 °C. The human prostate cancer cells and normal human lung fibroblast cells were subjected to variable doses of the compounds for 24 h.

Series [2] has as its system AR-PC-3 androgen-insensitive human prostate cancer cell line. The series can be described thus: MTT in vitro cytotoxicity assay, 24 h incubation. It counts as cell-based. As to conditions: for IC50: Homo sapiens, MTT; for Selective Index Wi38/PC-3: ratio of IC50 values. The procedure:
as §1, §2

The test system of series [3] is Wi38 normal human lung fibroblast cell line. The series can be described thus: MTT in vitro cytotoxicity assay, 24 h incubation. It is filed as cell-based. As to conditions: WI-38. The procedure:
as §1, §2

Molecules are shown by their SMILES.

For `O=C1NC(=S)NC1=Cc1cn(-c2ccccc2)nc1-c1ccc(F)cc1` [Compound 3a, 5-((3-(4-Fluorophenyl)-1-phenyl-1H-pyrazol-4-yl)methylene)-2-thioxoimidazolidin-4-one], the melting point (in general, the temperature of the solid-liquid transition) lay within 186 to 188 °C. For the same molecule, in series [1], 26.57 ± 0.04 µM corresponded to half-maximal inhibition (IC50) and the “Selective Index Wi38/Lncap” value came to 2.4. Further, in series [2], the IC50 (commonly the concentration needed to halve the response being measured) was 16.8 ± 0.34 µM and the “Selective Index Wi38/PC-3” value was 3.8. This molecule also gave a 50% inhibitory concentration (IC50) in series [3] of 63.27 ± 0.18 µM.
In turn, `Cc1ccc(-c2nn(-c3ccccc3)cc2C=C2NC(=S)NC2=O)cc1` [Compound 3f, 5-((1-Phenyl-3-(p-tolyl)-1H-pyrazol-4-yl)methylene)-2-thioxoimidazolidin-4-one] showed a melting point of 189 to 191 °C. Besides, in series [1], the IC50 amounted to 54.19 ± 0.11 µM and the “Selective Index Wi38/Lncap” value amounted to 1.0. In addition, in series [2], the half-maximal inhibitory concentration (IC50) was 20.19 ± 0.04 µM and the “Selective Index Wi38/PC-3” value is on record as 2.8. Further, half-maximal inhibition in series [3] (IC50) was put at 56.56 ± 0.14 µM.
`O=C1NC(=S)NC1=Cc1cn(-c2ccccc2)nc1-c1ccc(C(F)(F)F)cc1` [Compound 3d, 5-((1-Phenyl-3-(4-(trifluoromethyl)phenyl)-1H-pyrazol-4-yl)methylene)-2-thioxoimidazolidin-4-one] returned a melting point of 183 to 185 °C. Besides, in series [1], the IC50 was 23.5 ± 0.74 µM and the “Selective Index Wi38/Lncap” value was 2.0. Further, in series [2], the 50% inhibitory concentration (IC50) came out at 177.2 ± 0.61 µM and the “Selective Index Wi38/PC-3” value is on record as 0.3. In series [3], this molecule registered an IC50 of 48.19 ± 0.21 µM.
In turn, `O=C1NC(=S)NC1=Cc1cn(-c2ccc(F)cc2)nc1-c1ccc(F)cc1` [Compound 3h, 5-((1,3-Bis(4-fluorophenyl)-1H-pyrazol-4-yl)methylene)-2-thioxoimidazolidin-4-one] showed a melting point of 178 to 179 °C. Also, in series [1], the midpoint of inhibition, the IC50, lay at 19.48 ± 0.05 µM and the “Selective Index Wi38/Lncap” value amounted to 1.0. In addition, in series [2], the IC50 stood at 18.8 ± 0.14 µM and the “Selective Index Wi38/PC-3” value was found to be 1.0. Further, in series [3], half-maximal inhibition (IC50) required 20.96 ± 0.13 µM.
With `O=C1NC(=S)NC1=Cc1cn(-c2ccccc2)nc1-c1ccc(Br)cc1` [Compound 3c, 5-((3-(4-Bromophenyl)-1-phenyl-1H-pyrazol-4-yl)methylene)-2-thioxoimidazolidin-4-one], the melting point was 193 to 195 °C. For the same molecule, in series [1], the concentration for half-maximal inhibition (IC50) was 110 ± 2.06 µM and the “Selective Index Wi38/Lncap” value worked out at 0.8. Further, in series [2], the IC50 was 20.9 ± 1.12 µM and the “Selective Index Wi38/PC-3” value was found to be 4.2. This molecule also displayed a half-maximal inhibitory concentration (IC50) in series [3] of 87.9 ± 2.96 µM.
For `COc1cccc2c1C(=O)c1c(O)c3c(c(O)c1C2=O)C[C@@](O)(C(=O)CO)C[C@@H]3O[C@H]1C[C@H](N)[C@H](O)[C@H](C)O1` [Doxorubicin, reference compound], in series [1], the IC50 amounted to 11.4 ± 0.16 µM and the “Selective Index Wi38/Lncap” value is listed as 1.3. In addition, in series [2], the IC50 is 10 ± 0.18 µM and the “Selective Index Wi38/PC-3” value is on record as 1.5. In series [3], this molecule displayed a half-maximal inhibitory concentration (IC50) of 15.14 ± 0.12 µM.
In the case of `O=C1NC(=S)NC1=Cc1cn(-c2ccccc2)nc1-c1ccccc1` [Compound 3e, 5-((1,3-Diphenyl-1H-pyrazol-4-yl)methylene)-2-thioxoimidazolidin-4-one], the melting point lay in the range of 168 to 179 °C. Also, in series [1], inhibition was half-maximal at 33.9 ± 0.12 µM (IC50) and the “Selective Index Wi38/Lncap” value came to 1.9. In series [2], 20.1 ± 0.21 µM corresponded to half-maximal inhibition (IC50) and the “Selective Index Wi38/PC-3” value was found to be 3.2. This molecule also gave a concentration for half-maximal inhibition (IC50) in series [3] of 63.24 ± 0.26 µM.
In turn, `O=C1NC(=S)NC1=Cc1cn(-c2ccc(F)cc2)nc1-c1ccccc1` [Compound 3l, 5-((1-(4-Fluorophenyl)-3-phenyl-1H-pyrazol-4-yl)methylene)-2-thioxoimidazolidin-4-one] gave a melting point of 189 to 191 °C. In series [1], half-maximal inhibition (IC50) required 20.8 ± 0.04 µM and the “Selective Index Wi38/Lncap” value is recorded as 1.3. Further, in series [2], inhibition was half-maximal at 15.3 ± 0.04 µM (IC50) and the “Selective Index Wi38/PC-3” value was found to be 1.8. Also, it took 26.81 ± 0.06 µM to reach half-maximal inhibition in series [3] (IC50).

Source of the values: article PMC11274643, “Design, Synthesis, Characterization, and Cytotoxicity of New Pyrazolylmethylene-2-thioxoimidazolidin-4-one Derivatives towards Androgen-Sensitive LNCaP Prostate Cancer Cells” (Biomolecules, 2024).
